Data as given in patent publication US10597388B2, “Pyridazinone herbicides” (FMC CORPORATION, priority 2014, dated 2020).

Columns and labels:
Assay type in all cases: in vivo
[1] = system: oat, wild (wild oat, Avena fatua); test: Test C greenhouse herbicide test, postemergence
Procedure, shortened: (§1)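 Steps: pot plants in peat-based medium; spray postemergence at 1- to 4-leaf stage; hold in greenhouse 13 to 15 d; score visually against controls from 0 (no effect) to 100 (complete control).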

kochia (Kochia scoparia) = test: Test C greenhouse herbicide test, postemergence
Procedure, shortened: as §1

[2] = system: blackgrass (Alopecurus myosuroides); test: Test C greenhouse herbicide test, pre- and postemergence
Procedure, shortened: (§2)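 Two application timings: at sowing into a soil/sand blend, and on 2–18 cm seedlings in peat-vermiculite potting mix. A non-phytotoxic, surfactant-containing solvent carried the compounds. Plants were compared with controls and rated visually on 0–100 after 13–15 d.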

[3] = system: pigweed (Amaranthus retroflexus); test: as above
Procedure, shortened: as §2

[4] = system: morningglory (Ipomoea coccinea); test: as above
Procedure, shortened: as §2

[5] = system: crabgrass, large (large crabgrass, Digitaria sanguinalis); test: as above
Procedure, shortened: as §2

[6] = system: wheat (winter wheat, Triticum aestivum); test: as above
Procedure, shortened: as §2

[7] = system: foxtail, giant (giant foxtail, Setaria faberii); test: as above
Procedure, shortened: as §2

corn (Zea mays) = test: as above
Procedure, shortened: as §2

[8] = system: oilseed rape (Brassica napus); test: as above
Procedure, shortened: as §2

[9] = system: velvetleaf (Abutilon theophrasti); test: as above
Procedure, shortened: as §2

[10] = system: nutsedge, yellow (yellow nutsedge, Cyperus esculentus); test: as above
Procedure, shortened: as §2

[11] = system: waterhemp (common waterhemp, Amaranthus rudis); test: as above
Procedure, shortened: as §2

[12] = system: johnsongrass (Sorghum halepense); test: as above
Procedure, shortened: as §2

[13] = system: lambsquarters (Chenopodium album); test: as above
Procedure, shortened: as §2

[14] = system: barnyardgrass (Echinochloa crus-galli); test: as above
Procedure, shortened: as §2

[15] = Postemergence, 31 g ai/ha, scale 0 to 100 (0 no effect, 100 complete control)
[16] = Postemergence, 62 g ai/ha, 0 to 100 scale (0 no effect, 100 complete control)
[17] = Postemergence, 250 g ai/ha, scale 0 to 100, 0 no effect, 100 complete control, 13 to 15 d
[18] = postemergence, 125 g ai/ha, scale 0 to 100, 0 no effect, 100 complete control
[19] = Preemergence, 31 g ai/ha, scale 0 to 100, 0 is no effect, 100 is complete control
[20] = Preemergence, 62 g ai/ha, scale 0 to 100, 0 is no effect, 100 is complete control
[21] = Preemergence, 125 g ai/ha, scale 0 to 100, 0 is no effect, 100 is complete control
[22] = Preemergence, 250 g ai/ha, scale 0 to 100 (0 no effect, 100 complete control)

CCC(=O)Oc1c(C)nn(C)c(=O)c1-c1ccc(Br)c2ccccc12 [Compound 133]
Plant response rating, Oat, Wild [1, 15]: 90
Oat, Wild plant response rating [1, 16]: 90
Plant response rating, Oat, Wild [1, 17]: 95
Oat, Wild plant response rating [1, 18]: 95
Plant response rating, Kochia (kochia (Kochia scoparia); [15]): 98
Kochia plant response rating (kochia (Kochia scoparia); [16]): 100
Plant response rating, Kochia (kochia (Kochia scoparia); [17]): 100
Kochia plant response rating (kochia (Kochia scoparia); [18]): 100
Plant response rating, Blackgrass [2, 15]: 45
Blackgrass plant response rating [2, 16]: 35
Plant response rating, Blackgrass [2, 17]: 30
Plant response rating, Blackgrass [2, 19]: 30
Plant response rating, Blackgrass [2, 20]: 60
Plant response rating, Blackgrass [2, 21]: 50
Blackgrass plant response rating [2, 22]: 50
Blackgrass plant response rating [2, 18]: 70
Plant response rating, Pigweed [3, 15]: 80
Pigweed plant response rating [3, 16]: 98
Plant response rating, Pigweed [3, 17]: 95
Plant response rating, Pigweed [3, 19]: 100
Plant response rating, Pigweed [3, 20]: 100
Plant response rating, Pigweed [3, 21]: 100
Pigweed plant response rating [3, 22]: 100
Pigweed plant response rating [3, 18]: 100
Plant response rating, Morningglory [4, 15]: 100
Morningglory plant response rating [4, 16]: 100
Plant response rating, Morningglory [4, 17]: 95
Plant response rating, Morningglory [4, 19]: 45
Plant response rating, Morningglory [4, 20]: 85
Plant response rating, Morningglory [4, 21]: 90
Morningglory plant response rating [4, 22]: 95
Morningglory plant response rating [4, 18]: 100
Plant response rating, Crabgrass, Large [5, 15]: 0
Crabgrass, Large plant response rating [5, 16]: 5
Plant response rating, Crabgrass, Large [5, 17]: 20
Plant response rating, Crabgrass, Large [5, 19]: 0
Plant response rating, Crabgrass, Large [5, 20]: 30
Plant response rating, Crabgrass, Large [5, 21]: 35
Crabgrass, Large plant response rating [5, 22]: 65
Crabgrass, Large plant response rating [5, 18]: 5
Plant response rating, Wheat [6, 15]: 25
Wheat plant response rating [6, 16]: 35
Plant response rating, Wheat [6, 17]: 80
Plant response rating, Wheat [6, 19]: 0
Plant response rating, Wheat [6, 20]: 0
Plant response rating, Wheat [6, 21]: 10
Wheat plant response rating [6, 22]: 40
Wheat plant response rating [6, 18]: 55
Plant response rating, Foxtail, Giant [7, 15]: 25
Foxtail, Giant plant response rating [7, 16]: 25
Plant response rating, Foxtail, Giant [7, 17]: 55
Plant response rating, Foxtail, Giant [7, 19]: 30
Plant response rating, Foxtail, Giant [7, 20]: 65
Plant response rating, Foxtail, Giant [7, 21]: 75
Foxtail, Giant plant response rating [7, 22]: 90
Foxtail, Giant plant response rating [7, 18]: 40
Plant response rating, Corn (corn (Zea mays); [15]): 5
Corn plant response rating (corn (Zea mays); [16]): 5
Plant response rating, Corn (corn (Zea mays); [17]): 5
Plant response rating, Corn (corn (Zea mays); [19]): 5
Plant response rating, Corn (corn (Zea mays); [20]): 5
Plant response rating, Corn (corn (Zea mays); [21]): 10
Corn plant response rating (corn (Zea mays); [22]): 10
Corn plant response rating (corn (Zea mays); [18]): 5
Plant response rating, Oilseed Rape [8, 15]: 95
Oilseed Rape plant response rating [8, 16]: 98
Plant response rating, Oilseed Rape [8, 17]: 98
Plant response rating, Oilseed Rape [8, 19]: 5
Plant response rating, Oilseed Rape [8, 20]: 85
Plant response rating, Oilseed Rape [8, 21]: 90
Oilseed Rape plant response rating [8, 22]: 90
Oilseed Rape plant response rating [8, 18]: 98
Plant response rating, Velvetleaf [9, 15]: 85
Velvetleaf plant response rating [9, 16]: 90
Plant response rating, Velvetleaf [9, 17]: 100
Plant response rating, Velvetleaf [9, 19]: 55
Plant response rating, Velvetleaf [9, 20]: 90
Plant response rating, Velvetleaf [9, 21]: 90
Velvetleaf plant response rating [9, 22]: 100
Velvetleaf plant response rating [9, 18]: 100
Plant response rating, Nutsedge, Yellow [10, 15]: 75
Nutsedge, Yellow plant response rating [10, 16]: 90
Plant response rating, Nutsedge, Yellow [10, 17]: 98
Plant response rating, Nutsedge, Yellow [10, 19]: 20
Plant response rating, Nutsedge, Yellow [10, 20]: 55
Plant response rating, Nutsedge, Yellow [10, 21]: 70
Nutsedge, Yellow plant response rating [10, 22]: 95
Nutsedge, Yellow plant response rating [10, 18]: 95
Plant response rating, Waterhemp [11, 15]: 95
Waterhemp plant response rating [11, 16]: 100
Plant response rating, Waterhemp [11, 17]: 100
Plant response rating, Waterhemp [11, 19]: 80
Plant response rating, Waterhemp [11, 20]: 100
Plant response rating, Waterhemp [11, 21]: 95
Waterhemp plant response rating [11, 22]: 100
Waterhemp plant response rating [11, 18]: 100
Plant response rating, Johnsongrass [12, 15]: 5
Johnsongrass plant response rating [12, 16]: 10
Plant response rating, Johnsongrass [12, 17]: 10
Plant response rating, Johnsongrass [12, 19]: 5
Plant response rating, Johnsongrass [12, 20]: 35
Plant response rating, Johnsongrass [12, 21]: 30
Johnsongrass plant response rating [12, 22]: 40
Johnsongrass plant response rating [12, 18]: 20
Plant response rating, Lambsquarters [13, 15]: 95
Lambsquarters plant response rating [13, 16]: 98
Plant response rating, Lambsquarters [13, 17]: 100
Plant response rating, Lambsquarters [13, 19]: 90
Plant response rating, Lambsquarters [13, 20]: 90
Plant response rating, Lambsquarters [13, 21]: 95
Lambsquarters plant response rating [13, 22]: 95
Lambsquarters plant response rating [13, 18]: 100
Plant response rating, Barnyardgrass [14, 15]: 15
Barnyardgrass plant response rating [14, 16]: 30
Plant response rating, Barnyardgrass ([14]; Postemergence, 125 g ai/ha, scale 0 to 100, 0 is no effect, 100 is complete control): 45
Plant response rating, Barnyardgrass [14, 17]: 35
Plant response rating, Barnyardgrass [14, 19]: 0
Plant response rating, Barnyardgrass [14, 20]: 40
Plant response rating, Barnyardgrass [14, 21]: 50
Barnyardgrass plant response rating [14, 22]: 95
